pIC50: −log10 of the molar value. Where only a bound is given, the exact number is not on record here.

The values that follow come from patent publication US20220169654A1, “New Organic Compounds” (Servier Pharmaceuticals LLC, priority 2020, published 2022).

For one experiment, the system named is HCT116 MTAP+/+. In words: Inhibition of cellular proliferation, 4 days, Cell Titer Glo, HCT116 MTAP+/+. In kind it is cell-based. The settings on record: Homo sapiens, HCT-116, 96 h, IC50 bin with Max Inh., read-out: 4 Day Relative Growth Inhibition (MTAP +/+). In a few lines:
(§1)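 Isogenic HCT116 pair differing only in MTAP status, plated 24 h before treatment with 10-point 3-fold dilutions; 4 days at 37° C./5% CO2. Cell Titer Glo luminescence, blank-subtracted and normalised to 0.2% DMSO control, gives percentage proliferation vs log molar concentration for IC50.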

For a further experiment, the target named is T1, MAT2A homodimer (Homo sapiens, UniProt P31153).
T1 construct: inferred from Ni sepharose purification with imidazole elution; made in house; host or cells: Sf9 insect cells, baculovirus (Bac to Bac, pFASTBAC1)
Kind of experiment: MAT2A inhibition (biochemical, liberated phosphate, PiColorLock Gold). The settings on record: recombinant MAT2A homodimer; IC50 bin with Max Inh.; read-out: Enzyme Inhibition Bin. In a few lines:
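Baculovirus/Sf9-expressed, Ni-purified MAT2A (4 μg/mL) preincubated with compound 60 min at 25 °C in Tris pH 8.0/KCl/MgCl2 buffer. Reaction started with 500 μM ATP and 400 μM L-methionine (substrate-mix concentrations), run 60 min at 25 °C. Phosphate measured colorimetrically against a phosphate standard curve to give IC50.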

A further experiment concerns HCT116 MTAP−/−. In words: Inhibition of cellular proliferation, 4 days, Cell Titer Glo, HCT116 MTAP−/−. In kind it is cell-based. The settings on record: Homo sapiens, HCT-116, 96 h, IC50 bin with Max Inh., read-out: 4 Day Relative Growth Inhibition (MTAP −/−). In a few lines: as §1
Experiment [1] relates to SAM in HCT116 human colon carcinoma cell line with MTAP gene deleted (MTAP −/−). In words: Cellular assay of target engagement (SAM), LC-MS/MS, 72 hrs. The experiment is classed as cell-based. The settings on record: HCT-116, IC50 bin with Max Inh., read-out: Cell 72 h SAM Inhibition (MTAP −/−). An outline of the steps: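 MTAP-deleted HCT116 cells plated 24 h, then given 10-point 3-fold dilutions for 72 hrs at 37° C. Intracellular SAM extracted in cold 80% methanol with 1M acetic acid and d3-SAM standard, quantified by LC-MS/MS (MRM m/z 399.2→250.1); IC50 derived.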

T1 sequence (P31153 whole entry): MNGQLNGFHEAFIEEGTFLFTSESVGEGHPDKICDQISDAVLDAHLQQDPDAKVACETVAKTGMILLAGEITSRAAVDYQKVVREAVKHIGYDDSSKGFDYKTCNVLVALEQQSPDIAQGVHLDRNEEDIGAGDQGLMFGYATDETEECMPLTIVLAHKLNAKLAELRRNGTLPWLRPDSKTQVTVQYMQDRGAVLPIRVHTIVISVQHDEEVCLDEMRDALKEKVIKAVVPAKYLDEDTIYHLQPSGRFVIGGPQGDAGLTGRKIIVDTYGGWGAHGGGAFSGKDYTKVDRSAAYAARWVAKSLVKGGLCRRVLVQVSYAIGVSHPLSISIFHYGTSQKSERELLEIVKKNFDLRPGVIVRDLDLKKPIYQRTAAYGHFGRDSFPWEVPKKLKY

Regarding `CC(C)c1ccc(-c2c(=O)n(-c3ccc4nn(C)cc4c3)nc3ccn(CC4CC4)c23)cn1` [Example 129, 5-(cyclopropylmethyl)-4-(6-isopropylpyridin-3-yl)-2-(2-methyl-2H-indazol-5-yl)-2,5-dihydro-3H-pyrrolo[3,2-c]pyridazin-3-one], the pIC50 is less than 6.00 with HCT116 MTAP+/+, more than 7.00 at MAT2A homodimer, more than 7.00 in the experiment on HCT116 MTAP−/− and 6.00 to 7.00 in experiment [1].
